Data on nine compounds can be found in PubChem BioAssay (NCI).

Some test systems named below: 786-0 renal; HT29 colon; SK-MEL-5 melanoma; OVCAR-3 ovarian; NCI-H522 lung; SK-MEL-2 melanoma; COLO 205 colon; HOP-62 NSCLC; RPMI-8226 leukemia; HCT-15 colon; MOLT-4 leukemia; MDA-MB-231 breast; KM12 colon; UACC-62 melanoma; M14 melanoma; SR leukemia; T-47D breast; MDA-N.
What all share (assay): inhibition of tumour cell growth, NCI panel, 48 h

Structures are written as SMILES.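 Interpolation was linear, between the two tested concentrations surrounding the appropriate level; five concentrations were tested over 48 hours in 96-well plates. TGI marks complete inhibition of growth.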

With `CCOC(=O)c1nc2ccccc2nc1Nc1ccc(OC)cc1`, the TGI is above 100 µM in the test with 786-0 renal; above 100 µM with HT29 colon; above 100 µM in the test on SK-MEL-5 melanoma; 70.4 µM with OVCAR-3 ovarian; above 100 µM in the test on NCI-H522 lung; above 100 µM in the test on SK-MEL-2 melanoma. Besides, the TGI with COLO 205 colon was above 100 µM; in the test with HOP-62 NSCLC, 30.7 µM; with RPMI-8226 leukemia, above 100 µM; in the test with HCT-15 colon, above 100 µM; in the test on MOLT-4 leukemia, above 100 µM; in the test on MDA-MB-231 breast it was 51.3 µM. Further, the TGI with KM12 colon is above 100 µM; with UACC-62 melanoma, 66.6 µM; in the test on M14 melanoma it was above 100 µM; in the test on SR leukemia it was above 100 µM; in the test with T-47D breast, above 100 µM.

Take `COc1cc(C2c3cc4c(cc3OC(NCCc3ccccc3)C2C)OCO4)cc(OC)c1OC` (stereo not drawn): the TGI in the test on 786-0 renal is 18.1 µM; in the test on HT29 colon it was 11.1 µM; in the test with SK-MEL-5 melanoma it was 4.82 µM; with NCI-H522 lung, 0.779 µM; with SK-MEL-2 melanoma, above 42.1 µM; in the test with COLO 205 colon, 0.605 µM. In addition, the TGI is above 70.3 µM in the test on HOP-62 NSCLC; 14.7 µM in the test on RPMI-8226 leukemia; above 40.9 µM in the test on HCT-15 colon; above 37.7 µM with MOLT-4 leukemia; 1.02 µM in the test with MDA-MB-231 breast; 4.12 µM in the test on KM12 colon. Besides, the TGI with UACC-62 melanoma was 35.3 µM; in the test on M14 melanoma, above 47.6 µM; in the test on T-47D breast, 66.8 µM.

`CCCCCCSCC/C(C)=N\OC`: the TGI with 786-0 renal, in the test with HT29 colon, with SK-MEL-5 melanoma, in the test with OVCAR-3 ovarian, in the test with NCI-H522 lung and with SK-MEL-2 melanoma was above 100 µM in each case. For the same compound, the TGI in the test with COLO 205 colon, with HOP-62 NSCLC, in the test with RPMI-8226 leukemia, with HCT-15 colon, with MOLT-4 leukemia and in the test on MDA-MB-231 breast was above 100 µM in each case. For the same compound, the TGI in the test with KM12 colon, with UACC-62 melanoma, with M14 melanoma and in the test on MDA-N was above 100 µM in each case.

For `CN(C)/C=N\c1nncc2[nH]cnc12`, the TGI in the test with 786-0 renal, in the test with HT29 colon, in the test on SK-MEL-5 melanoma, in the test with OVCAR-3 ovarian, in the test on NCI-H522 lung and with SK-MEL-2 melanoma was above 100 µM throughout. The TGI in the test with COLO 205 colon, with HOP-62 NSCLC, in the test on RPMI-8226 leukemia, in the test with HCT-15 colon, in the test with MOLT-4 leukemia and with KM12 colon was above 100 µM in each case. The TGI in the test on UACC-62 melanoma, with M14 melanoma, with MDA-N and in the test with T-47D breast was above 100 µM throughout.

Take `Cc1cc(C)c2c(c1)N[S@@](=O)S2`: the TGI with 786-0 renal worked out at 28.9 µM; in the test with HT29 colon, 41.1 µM; with SK-MEL-5 melanoma, 80.6 µM; in the test with OVCAR-3 ovarian, 39 µM; in the test on NCI-H522 lung, 31.9 µM; with SK-MEL-2 melanoma, 82.9 µM. Also, the TGI was 33.5 µM in the test on COLO 205 colon; above 100 µM with HOP-62 NSCLC; 88.5 µM in the test with RPMI-8226 leukemia; 33 µM in the test on HCT-15 colon; 65.6 µM with MOLT-4 leukemia; 69.6 µM in the test with KM12 colon. For the same compound, the TGI with UACC-62 melanoma stood at 37.9 µM; in the test with M14 melanoma, 33.2 µM; with SR leukemia, 83.7 µM.

Regarding `COc1ccccc1-n1c(NN)nc2ccc(Br)cc2c1=O`, the TGI in the test on 786-0 renal was above 100 µM; with HT29 colon it was above 100 µM; with SK-MEL-5 melanoma, 43 µM; with OVCAR-3 ovarian it was above 100 µM; with NCI-H522 lung, 63.2 µM; in the test on SK-MEL-2 melanoma, above 100 µM. For the same compound, the TGI in the test with COLO 205 colon, with HOP-62 NSCLC, in the test with RPMI-8226 leukemia, with HCT-15 colon, in the test with MOLT-4 leukemia and with KM12 colon was above 100 µM each time. The TGI in the test with UACC-62 melanoma, in the test on M14 melanoma and in the test with SR leukemia was above 100 µM in each case.

As to `CSC1=C(C(=O)Nc2ccc(C)cc2)C(N)=NC1=O`, the TGI in the test with 786-0 renal, in the test on HT29 colon, in the test on SK-MEL-5 melanoma, with COLO 205 colon, in the test on RPMI-8226 leukemia and in the test with HCT-15 colon was above 100 µM each time. Besides, the TGI in the test with MOLT-4 leukemia, in the test with MDA-MB-231 breast, in the test with KM12 colon, in the test with UACC-62 melanoma, in the test with M14 melanoma and in the test on SR leukemia was above 100 µM in each case. The compound further had a TGI in the test on T-47D breast above 100 µM.

For `C[C@@H]1CCC2C(C)(C)C(/C=C\C=O)C3(C)OC213` (stereo partly drawn), the TGI in the test with 786-0 renal is above 100 µM; with HT29 colon, 62 µM; with SK-MEL-5 melanoma, 53.2 µM; with OVCAR-3 ovarian, above 100 µM; with NCI-H522 lung, above 100 µM; in the test on SK-MEL-2 melanoma it was above 100 µM. The TGI is 55.4 µM with COLO 205 colon; above 100 µM in the test on HOP-62 NSCLC; 84.5 µM in the test with RPMI-8226 leukemia; above 100 µM with HCT-15 colon; 86.9 µM in the test with MOLT-4 leukemia; above 100 µM with MDA-MB-231 breast. Further, the TGI with KM12 colon, in the test with UACC-62 melanoma, with M14 melanoma and in the test on MDA-N was above 100 µM throughout.

Consider `COc1cc(C2C(C(=O)Nc3ccc([N+](=O)[O-])cc3)=C(C)NC(C)=C2C(=O)Nc2ccc([N+](=O)[O-])cc2)ccc1O`, for which the TGI with 786-0 renal was above 100 µM; with HT29 colon, 38.1 µM; with SK-MEL-5 melanoma it was above 100 µM; in the test with OVCAR-3 ovarian, 55.7 µM; in the test with NCI-H522 lung it was 39.7 µM; in the test on SK-MEL-2 melanoma it was 34.7 µM. In addition, the TGI was 30.9 µM with COLO 205 colon; 35 µM with HOP-62 NSCLC; 59.6 µM in the test with RPMI-8226 leukemia; 50.8 µM in the test on HCT-15 colon; 75.4 µM in the test on MOLT-4 leukemia; 39 µM in the test on KM12 colon. Further, the results for the TGI with UACC-62 melanoma, in the test on M14 melanoma and in the test on SR leukemia were 42 µM, above 60.5 µM and above 44.1 µM, respectively.
